Earlier results on one compound are cited in patent US10215758B2, “Platinum-labeled probes for mass cytometry” (priority 2015, dated 2019).

The conditions of this data set: human, in vivo; cited from earlier work.

As for `N.N.[Cl][Pt][Cl]` [cisplatin, cis-diamminedichloroplatinum(II)], the “binding to serum protein” value is recorded as “most cisplatin binds to serum protein within hours”.
